Row | melting point [°C] | Structure (SMILES)
1 | 186 to 187 | CC1=C(C(=O)O)N2C(=O)C(=NSc3ccc(C)cc3)C2SC1 (stereo not drawn)
2 | 187 to 189 | CCCC(=O)N(Cc1ccc(-c2ccccc2-c2nnn[nH]2)cc1)C(C)(C)C(=O)O
3 | 92 to 93 | CCOC(=O)COc1cccc2c1OCC(Br)C2=O (stereo not drawn)
4 | 285 to 287 | Cc1cc(C)c2c(=O)cc(C(=O)O)[nH]c2c1
5 | 121 to 124 | CC(=O)c1ccc2c(c1)C(C)(C)C(O)CC2(C)C (stereo not drawn)
6 | 125 to 126 | CC(C(=O)N(C)O)c1ccc(-c2ccccc2)c(F)c1 (stereo not drawn)
7 | 224 to 249 | Cc1cc(C(C)(C)C)cc(C)c1C1C(=O)CC(C)(C)CC1=O
8 | 158 to 159 | CCCCc1nc(C(C)(C)O)c(C(=O)O)n1Cc1ccc(-c2ccccc2C(=O)OC(C)(C)C)cc1
9 | 214 to 216 | Cc1coc2c(c1=O)N(C)S(=O)(=O)c1ccccc1-2
10 | 121 to 122 | Cc1ccc(S(=O)(=O)Sc2cc(C)c(CO)cc2C(C)(C)C)cc1
11 | 167 to 170 | CC1=C(C(=O)OCC2COc3ccccc3O2)C(c2c(F)c(F)c(F)c(F)c2F)C2=C(CNCC2=O)N1 (stereo not drawn)
12 | 87 to 91 | Cc1ccc(C[C@@H]2CN(C(=O)/C=C/c3ccccc3)CCN2C(=O)c2cc(C(F)(F)F)cc(C(F)(F)F)c2)cc1C
13 | 178 to 180 | CS(=O)(=O)c1ccc(-c2cc(=O)n(CC(=O)c3ccccc3)nc2-c2ccc(F)cc2)cc1
14 | 283 to 284 | CC1CN(c2c(F)cc3c(=O)c(C(=O)O)cn(C)c3c2C(F)(F)F)CCN1c1ncccn1 (stereo not drawn)
15 | 174 to 178 | Cc1ccc2c(=O)c3cc(C(F)(F)F)ccc3sc2c1
16 | 222 to 224 | O=C(N[C@H]1CCN(C(=O)c2cc(C(F)(F)F)cc(C(F)(F)F)c2)[C@H](Cc2ccc(Cl)cc2)C1)c1cc(O)nc2ccccc12
17 | 122 to 124 | CC(C)(C)c1ccc(OCC2=NC3(O)c4ccc(Cl)cc4CC3S2)cc1 (stereo not drawn)
18 | 156 to 166 | COC(=O)c1ccc(CNC(=O)c2ccc(C(=O)NO)s2)cc1
19 | 307 to 308 | Nc1ccc(N2CCOCC2)c(C(=O)O)c1
20 | 40 | COC(=O)CNc1cccc(C)c1
21 | 205 to 207 | CC(C)Oc1cccc(NC(=O)OCc2c(-c3ccccc3)c3cc(Cl)ccc3c(=O)n2C)c1
22 | 56 to 57 | CN(CCSc1ccc([N+](=O)[O-])cc1)CCc1ccc([N+](=O)[O-])cc1
23 | 149 to 151 | COc1ccc(Cl)c(NC(=O)Cc2ccc(Cl)cc2)c1
24 | 124 to 129 | c1ccc(CN2CCc3c(sc4nc5ccccc5n34)C2)cc1

Row | melting point [°C] | Structure (SMILES)
25 | 128 to 131 | CCOC(=O)N(C)CC1CN(c2c(F)cc3c(=O)c(C(=O)O)cn(C4CC4)c3c2F)CCO1 (stereo not drawn)
26 | 197 to 199 | N#CC(NC(=O)c1cccn2cc(-c3ccccc3)nc12)c1ccco1 (stereo not drawn)
27 | 234 to 236 | Cc1nn2c(-c3cc(Cl)ccc3Cl)ccnc2c1C(N)=O
28 | 122 to 124 | COC(=O)c1cccc(Cc2ccc3[nH]c(-c4ccc5c(c4)OCO5)nc3c2)c1
29 | 199 to 200 | CN1C(=O)CC[C@]2(C)c3ccc(Sc4ccc(-c5ccccc5)nn4)cc3CC[C@@H]12
30 | 82 to 87 | CC(=O)N(CCc1nc(-c2ccccc2)oc1C)Cc1ccc(C[C@@H](C(=O)O)n2cccc2)cc1
31 | 157 to 158 | [N-]=[N+]=NCC1Cc2c(ccc3c2CCC(=O)N3)O1 (stereo not drawn)
32 | 108 to 110 | COC(=O)c1nc(NC(=O)CCCOc2cccc(CN3CCCCC3)c2)n(C)n1
33 | 122 | O=C(c1ccn(S(=O)(=O)c2ccccc2)c1)c1ccc(Cl)cc1Cl
34 | 230 to 232 | N#Cc1ccc(NC(=O)c2cccc(S(=O)(=O)N3CCOCC3)c2)c(-c2nnn[nH]2)c1
35 | 268 to 276 | Cc1onc2c(=O)[nH]nc(-c3ccc(O)cc3)c12
36 | 83 to 84 | CCOC(=O)C1CCc2cc(C(=O)c3ccccc3)c(O)cc21 (stereo not drawn)
37 | 156 to 160 | O=C(Oc1ccccc1)c1ccc2[nH]nnc2c1
38 | 124 to 126 | CC(=O)OCCN1C2=NCCN2C(=O)c2ccccc21
39 | 213 | Cc1c(C(=O)Nc2ccc(N3CCC(N4CCC(=O)CC4)CC3)c(C#N)c2)cnn1-c1ccc(Cl)cc1
40 | 140 to 142 | CC(C)c1nn(-c2ccccn2)cc1CCCOc1ccccc1CC(=O)O
41 | 190 to 192 | O=C1NC(c2ccccc2)CN1S(=O)(=O)c1ccc2c(c1)CCN2C(=S)Nc1ccc(F)cc1 (stereo not drawn)
42 | 265 | O=C(Oc1ccccc1)c1n[nH]c2c(=O)[nH]c3cc(Cl)ccc3c(=O)c12
43 | 276 to 279 | COc1ccc(/C=C/C2=NS(=O)(=O)c3ccccc3N2)cc1OC
44 | 123 to 125 | Cc1ccc(S(=O)(=O)NC[C@H]2CN3C(=O)C[C@H]3O2)cc1 (racemic)
45 | 90 to 94 | CCCCN1C(=O)c2cnc(-c3ccccc3)nc2N(C(=O)CN2CCN(C)CC2)c2ccccc21
46 | 247 to 250 | CCCc1ccc(-c2ccc3c(c2)C=C(C(=O)Nc2ccc(CN(C)C4CCOCC4)cc2)CCS3(=O)=O)cc1
47 | 173 to 175 | CCOC(=O)C1=C(N)Nc2ccnc(OC(C)C)c2C1c1ccccc1C(F)(F)F (stereo not drawn)

Continued, compound first:

Row | Structure (SMILES) | melting point [°C]
48 | C[C@H](CN(C(=O)C1C2CCC1CC2)c1ccccn1)N1CCN(c2cccc3[nH]ccc23)CC1 (stereo partly drawn) | 176 to 179
49 | O=C(NO)C1(NS(=O)(=O)c2ccc(Oc3ccc(F)cc3)cc2)CCOCC1 | 176 to 177
50 | CCc1nc2c(Br)cccc2cc1C | 54
51 | Nn1nc(-c2ccc(Cl)cc2)cc1OCCN1CCOCC1 | 120 to 121
52 | COc1c(NC(=O)c2ccccc2)cccc1C(=O)NC1C(Cl)=CC(C(F)(c2ccc(Cl)cc2)C(F)(F)F)=CC1(Cl)OC (stereo not drawn) | 163 to 166
53 | COc1cc(C=CC(=O)c2ccccc2N(C)C)cc(OC)c1 | 160
54 | NC(=O)CN1CCC(C(=O)N2CCN3C(=O)OC(c4ccccc4)(c4ccccc4)C3C2)CC1 (stereo not drawn) | 253 to 255
55 | CCCN(c1ncnc2c1ncn2C1OC(CO)C(O)C1O)n1cccc1 (stereo not drawn) | 136 to 138
56 | COCCNC(=O)c1cccc(-c2ccc(F)c3cc(Cc4cc(F)cc(Cl)c4)sc23)c1 | 90 to 110
57 | CCCCCCCCCCCCCCN(O)CCCCCCCCCCCCCC | 94 to 96
58 | COc1ccccc1-c1n[nH]c2c(NCCO)cc(C)nc12 | 193 to 194
59 | COc1ccc(C(=O)Nc2nc3ccc(N(C)C)cc3c(NCc3ccccc3)c2C#N)cc1 | 185
60 | COc1cc(C=O)cc2c1OCCC2=O | 139
61 | COC(=O)C(=Cc1cc(OC)cc(OC)c1)c1ccc(Oc2ccc(CBr)cc2)cc1 | 79 to 81
62 | CC(=CC(=O)O)CCCCCCCCCCCCC(=O)O | 77
63 | CCCCC(CCCC)n1c(=O)sc2c(=O)[nH]c(N)nc21 | > 175
64 | CN(C)CCc1cn(C(=O)c2ccccc2)c2ccc(O)cc12 | 154 to 156
65 | COP(=O)(OC)C(c1ccc(F)cc1)(c1ccccc1F)c1ccccc1Cl (stereo not drawn) | 132
66 | CC(C)(C)c1nnc(NN)s1 | 111 to 112
67 | CCOC(=O)c1cnc(SC)nc1NC(C)C | 159 to 160
68 | CCCCC(Cn1cncn1)(NC(C)=O)c1ccc(Cl)cc1 (stereo not drawn) | 178 to 179
69 | COc1ccc(F)cc1C(C)(C)CC(O)(Cc1ccc(C(C)=NO)cc1Cl)C(F)(F)F (stereo not drawn) | 136 to 138
70 | CC1(C)COc2ccc(Cl)cc2C(O)(c2ccccn2)C1 (stereo not drawn) | 118
71 | O=C(O)/C=C/C=C(c1ccc(-c2ccccc2)cc1)c1ccc(-c2ccccc2)cc1 | 253 to 255
72 | O=C(O)C(=NOc1ccccc1)c1ccccc1 | 105
73 | COc1cc([N+](=O)[O-])c(C)cc1Br | 91 to 92

Row | Structure (SMILES) | melting point [°C]
74 | CC(=O)Oc1cc2c(cc1F)C1(OC(=O)c3c1ccc(N)c3N)c1cc(F)c(OC(C)=O)cc1O2 | 135
75 | COc1cc(C=Cc2cc(OC)c(OC)c(OC)c2)cc(Br)c1OC | 180 to 182
76 | C=CC(=O)OCCCCCCCCCCCCOc1ccc(-c2cccc(F)c2F)cc1 | 59.7 to 60.7
77 | CON1C=C2N=NC3=C(N2C1)N(C(C)C)CC=C3 | 159 to 162
78 | Nc1nc(N)c2cc(Cc3ccc(Cl)c(Cl)c3)ccc2n1 | 150 to 151
79 | COc1ccccc1Nc1nc(N)nc2c(OC)cccc12 | 243 to 244
80 | CCC(CC)Nc1c([N+](=O)[O-])cc(C)c(C=CN(C)C)c1[N+](=O)[O-] | 100 to 102
81 | C[C@]1(CN2CCN(S(=O)(=O)CCCc3ccc(Cl)cc3)CC2)Cn2cc([N+](=O)[O-])nc2O1 | 150 to 151
82 | CC(C)(C)c1ccc(C(O)CCCN2CCC(C(O)c3nc4ccccc4n3Cc3ccc(F)cc3)CC2)cc1 (stereo not drawn) | 87 to 90
83 | N#Cc1ccc2[nH]cc(Cc3cccnc3)c2c1 | 125
84 | CN1C(=O)CSC(c2cccc(Cl)c2)c2cc(C(N)(c3ccc(Cl)cc3)c3cncn3C)ccc21 (stereo not drawn) | 218
85 | O=C(C=CCN1CCC(O)(c2ccc(Cl)cc2)CC1)c1ccc(F)cc1 | 97 to 97.5
86 | Nc1c(C2CNCCO2)oc2ccccc2c1=O (stereo not drawn) | 140 to 141
87 | O=C(CCCCl)Nc1cccc(-c2ccnc3c(C(=O)c4cccs4)cnn23)c1 | 97 to 100
88 | C=C(CCCCCCCCCCCCCC)C(=O)O | 49.5 to 50
89 | COc1ccc(C(O)(C(F)(F)F)C(F)(F)F)cc1C=CC(=O)O | 184 to 186
90 | COc1cc2c(C3=CCNCC3)c[nH]c2cc1Cl | 222 to 224
91 | O=C(CCc1cnn2c(=O)[nH]cnc12)NCCCN1CCCC1=O | 180 to 181
92 | CS(=O)(=O)Nc1ccc(OC2CCCC2)cc1 | 140 to 142
93 | COC(=O)c1ccccc1OCC(O)CNCCNC(=O)C(C)C (stereo not drawn) | 128 to 129
94 | CC(C)(C)OC(=O)NCCNC(=O)c1ncccc1Oc1cccc(Cl)c1 | 86 to 87
95 | N#Cc1ccccc1Nc1ccccc1[N+](=O)[O-] | 134 to 138
96 | CC(C)(C#N)Cc1ccc(-c2ccc(CC(C)(C)C#N)c(Cl)c2)cc1Cl | 148 to 156
97 | N#Cc1ccc(-c2cc3c(Cl)ncnc3[nH]2)cc1 | 296 to 297
98 | COc1cc(N2CCC(N3CCN(C)CC3)CC2)ccc1Nc1ncc2ccc(-c3ccc(Cl)nc3)n2n1 | 186 to 188
